Patent publication US8692014B2, “Acid addition salts of 5-aminolevulinic acid or its derivatives” (Photocure ASA, priority 2004, dated 2014)
Blank lines part the entries; values can stand above or below the molecule they belong to.

Key:
[1] = Hygroscopicity: water uptake and onset of deliquescence in closed chamber at 75-84% relative humidity; format: physicochemical; settings: 75-84% relative humidity over saturated ammonium sulfate solution, ca. 25° C.; for appearance / deliquescence during the test period / water uptake as monitored by weight: in words
Method: (§1) Samples of methyl 5-amino-4-oxopentanoate hydrochloride, methanesulfonate, and toluenesulfonate were weighed and kept in 30 ml plastic cups in a closed chamber at 75-84% relative humidity over saturated ammonium sulfate solution at ambient temperature (ca. 25° C.). The samples were then weighed after different intervals of time to monitor water uptake. The appearance of the samples was also checked at the same time to determine the onset of deliquescence.
as §1, with “5-amino-4-oxopentanoic acid hydrochloride” for “methyl 5-amino-4-oxopentanoate hydrochloride, methanesulfonate,”, “75-84” for “75-84%”
as §1, with “hexyl” for “methyl”, “hydrochloride” for “hydrochloride, methanesulfonate,”

mouse skin [2] = assay: Skin fluorescence after topical application of cream formulations to nude mice (emission 550-750 nm); format: in vivo, Female Balb/c athymic nude mice; settings: in words; for initial fluorescence build-up compared with the hydrochloride salt / occurrence of maximum fluorescence compared with the hydrochloride salt / skin fluorescence compared to the hydrochloride salt: topical cream 0.5 mmol/10 g; for initial fluorescence build-up compared with the hydrochloride salt / occurrence of maximum fluorescence compared with the hydrochloride salt: FIG. 2; for skin fluorescence compared to the hydrochloride salt: FIG. 3 and FIG. 4
Method: Different salts of 5-amino-4-oxopentanoic acid or of its esters were formulated in Unguentum Merck for dermal studies. All cream formulations contained 0.5 mmol of substance per 10 g cream to ensure the same molar concentration (assuming that 10 g cream equals 10 ml, the approx. molar concentration is 0.5 mmol/10 ml or 50 mM). Preparation of the formulations is outlined in Table 1 below.
(§2) Method: Female Balb/c athymic nude mice, weighing about 22 g, obtained from the Department of Laboratory Animals, The Norwegian Radium Hospital, Oslo, Norway, were used in the study. Each group consisted of three mice.
(§3) Each mouse received 0.05-0.1 g of formulation (see Example 31) topically applied at the right flank of the body, evenly distributed and covered with a dressing (Opsite Flexigrid; Smith and Nephew Medical Ltd., Hull, England).
(§4) The fiber point measuring device used consisted of a bundle of optical fibers connected to a spectrofluorimeter which produced the excitation light of 407 nm. The excitation light, which is capable of penetrating 0.1-0.5 mm into the tissue, was led through half of the fibers to the mouse skin. The resulting emission fluorescence spectrum (550-750) nm was collected and led through the remaining fibers into a photomultiplier for quantification. The fluorescence spectrum from the skin was measured at 0, 2, 4, 6, 8, 10, 12 and 24 hours after administration and plotted against time.

mouse skin [3] = assay: Skin fluorescence after topical application of cream formulations to nude mice, measured at 636 nm; format: in vivo, Female Balb/c athymic nude mice; settings: topical cream 0.5 mmol/10 g, fluorescence at 636 nm, in words; for induction of skin fluorescence compared with the hydrochloride salt: FIG. 6 and FIG. 7; for occurrence of maximum fluorescence compared with the hydrochloride salt: FIG. 7
Text: as §2, §3, §4
Different salts of 5-amino-4-oxopentanoic acid or of its benzylester were formulated in Unguentum Merck for dermal studies. All cream formulations contained 0.5 mmol substance per 10 g cream to assure the same molar concentration. Corrections were made in the case of the 2:1 salts so that the molar concentration of 5-amino-4-oxopentanoic acid or the corresponding ester corresponded to 0.5 mmol/10 g cream. Assuming that 10 g cream equals 10 ml, the approx. molar concentration is 0.5 mmol/10 ml=50 mM. Preparation of the formulations is outlined in Table 2 below.
Preparation of the Formulations is Described in Example 36. The same experimental system as in Example 32 was used, except that the skin fluorescence was measured at 636 nm rather than at 550-750 nm.
Preparation of the Formulations is Described in Example 36. The same experimental system as in Example 37 was used.

[4] = Hygroscopicity: 2 mg samples kept at ambient temperature at ambient or 100 humidity; format: physicochemical; settings: for deliquescence on storage: ambient temperature and 100 humidity; for change of sample on storage: ambient temperature and ambient humidity for 4 days
Method: Samples (2 mg) of the hydrochloride, methanesulfonate, and toluenesulfonate of hexyl 5-amino-4-oxopentanoate were kept at ambient temperature and ambient humidity for 4 days.
Samples (2 mg) of the hydrochloride, methanesulfonate, and toluenesulfonate of hexyl 5-amino-4-oxopentanoate were kept at ambient temperature and 100 humidity.

Molecule: 5-Amino-4-oxopentanoic acid toluenesulfonate
appearance / deliquescence during the test period [1]: did not change appearance during the test period
water uptake as monitored by weight [1]: did not pick up water

Molecule: Cl.NCC(=O)CCC(=O)O [5-amino-4-oxopentanoic acid hydrochloride, reference compound]
onset of deliquescence [1]: 22.5 h
water uptake as monitored by weight [1]: took up water to a considerable extent

Molecule: CS(=O)(=O)O.NCC(=O)CCC(=O)O [5-amino-4-oxopentanoic acid methanesulfonate]
maximal skin fluorescence compared with the HCl salt (mouse skin [2]; topical cream 0.5 mmol/10 g (Unguentum Merck), excitation 407 nm, emission 550-750 nm, 0-24 h, FIG. 1): somewhat higher maximal skin fluorescence than the HCl salt

Molecule: CS(=O)(=O)O.NCC(=O)CCC(=O)OCc1ccccc1 [Benzyl 5-amino-4-oxopentanoate methanesulfonate]
initial fluorescence build-up compared with the hydrochloride salt (mouse skin [2]): occurred faster
occurrence of maximum fluorescence compared with the hydrochloride salt (mouse skin [2]): occurred faster

onset of deliquescence [1]: 22 h
water uptake as monitored by weight [1]: took up water to a considerable extent
Molecule: COC(=O)CCC(=O)CN.CS(=O)(=O)O [Methyl 5-amino-4-oxopentanoate methanesulfonate]
skin fluorescence compared to the hydrochloride salt (mouse skin [2]; emission 550-750 nm): a considerable increase in skin fluorescence as compared to the hydrochloride salt

Molecule: NCC(=O)CCC(=O)OCc1ccccc1.O=[N+]([O-])O [benzyl 5-amino-4-oxopentanoate nitrate, Benzyl 5-amino-4-oxopentanoate nitrate]
induction of skin fluorescence compared with the hydrochloride salt (mouse skin [3]): more effective in inducing skin fluorescence than the hydrochloride salt

Molecule: NCC(=O)CCC(=O)OCc1ccccc1.O=P(O)(O)O [benzyl 5-amino-4-oxopentanoate phosphate, Benzyl 5-amino-4-oxopentanoate phosphate]
induction of skin fluorescence compared with the hydrochloride salt (mouse skin [3]): poorer inducers of skin fluorescence than the corresponding hydrochloride salt
occurrence of maximum fluorescence compared with the hydrochloride salt (mouse skin [3]): occurred earlier

deliquescence on storage [4]: deliquesced after standing overnight
change of sample on storage [4]: No observable change
onset of deliquescence [1]: 5.0 h
Molecule: CCCCCCOC(=O)CCC(=O)CN.Cl [hexyl 5-amino-4-oxopentanoate hydrochloride, reference compound]
water uptake as monitored by weight [1]: did not pick up water to a considerable extent

deliquescence on storage [4]: deliquesced after two days
change of sample on storage [4]: No observable change
appearance / deliquescence during the test period [1]: deliquescence did not occur
water uptake as monitored by weight [1]: took up water to some extent
Molecule: CCCCCCOC(=O)CCC(=O)CN.CS(=O)(=O)O [hexyl 5-amino-4-oxopentanoate methanesulfonate]
skin fluorescence compared to the hydrochloride salt (mouse skin [2]; emission 550-750 nm): approx. the same skin fluorescence as the hydrochloride salt

onset of deliquescence [1]: 22 h
water uptake as monitored by weight [1]: took up water to a considerable extent
Molecule: COC(=O)CCC(=O)CN.Cl [methyl 5-amino-4-oxopentanoate hydrochloride, reference compound]

Molecule: Benzyl 5-amino-4-oxopentanoate sulfate (2:1)
induction of skin fluorescence compared with the hydrochloride salt (mouse skin [3]): poorer inducers of skin fluorescence than the corresponding hydrochloride salt
occurrence of maximum fluorescence compared with the hydrochloride salt (mouse skin [3]): occurred earlier

Molecule: Benzyl 5-amino-4-oxopentanoate toluenesulfonate
initial fluorescence build-up compared with the hydrochloride salt (mouse skin [2]): occurred faster
occurrence of maximum fluorescence compared with the hydrochloride salt (mouse skin [2]): occurred faster

Molecule: Methyl 5-amino-4-oxopentanoate toluenesulfonate
appearance / deliquescence during the test period [1]: did not change appearance during the test period
water uptake as monitored by weight [1]: did not pick up water

Molecule: hexyl 5-amino-4-oxopentanoate toluenesulfonate
skin fluorescence compared to the hydrochloride salt (mouse skin [2]; emission 550-750 nm): approx. the same skin fluorescence as the hydrochloride salt
deliquescence on storage [4]: deliquesced after four days
change of sample on storage [4]: No observable change
appearance / deliquescence during the test period [1]: did not change appearance during the test period
water uptake as monitored by weight [1]: did not pick up water
